Reference: publication doi:10.1101/2021.07.22.453354v1 (biorxiv, 2021)

Molecular target: ΔNFun30 (printed ⊗NFun30), Fun30 from C. albicans, orf19.6291 (Candida albicans, UniProt A0A1D8PTJ0)
Experiment: biochemical

Kd: 1320 ± 30 nM
Compound: Nc1ncnc2c1ncn2[C@@H]1O[C@H](COP(=O)(O)OP(=O)(O)OP(=O)(O)O)[C@@H](O)[C@H]1O [ATP]
